Experimental data published in US6828341B2, “Cyclohexylamine derivatives as subtype selective N-Methyl-D-Aspartate antagonists” (Warner-Lambert Company, priority 2001, dated 2004).
pIC50: −log10 of the molar value. Structures can show the parent of a compound that is named as a salt.

Key:
[1] = biological target: T1, NR1A/NR2B NMDA receptor subtype (Rattus norvegicus, UniProt P35439+Q00960); test: [3H]Ifenprodil binding assay (IFPNR); conditions: displacement of 4 nM [3H]-ifenprodil, adult rat forebrain membranes, 2 hours at room temperature, pH 7.4
T1 construct: membrane fraction was prepared from frozen adult rat forebrains; tissue Zivic-Miller Laboratories, Inc; host or cells: adult rat forebrain, washed buffy coat membrane fraction
Method: (b) [^3H]Ifenprodil Binding Assay (IFPNR) Protocol:
Ifenprodil, [phenyl-^3H]-(specific activity, 66.2 Ci/mmol) was purchased from Dupont NEN Research Products (Boston, Mass.). Ifenprodil tartrate was purchased from Research Biochemicals International (Natick, Mass.). HEPES, glutamate, and glycine were purchased from Sigma Chemical Co. (St. Louis, Mo.).
All buffers and reagents used in assay incubations or to dissolve drugs were prepared using water purified through a Milli-Q reverse osmosis system (Millipore Corp., Bedford, Mass.) and treated with UV emissions. Prior to use in the assays buffers were further filtered through a sterile Corning filtration unit (Corning Glass Works, Corning, N.Y.) containing a 0.2 micron filter. Buffer used to rinse the membranes on the assay filters was prepared with purified water, but was not refiltered and was stored no longer than 5 days. Stock solutions of the drugs (usually 10 mM) were dissolved in 20 mM HEPES-KOH buffer pH 7.4 (assay buffer) with the addition of from 1 to 5 μL of glacial AcOH, if needed to keep them in solution. Eliprodil was used as the reference NMDA antagonist. A stock solution of eliprodil was prepared and was buffered with the addition of 10% DMSO. All subsequent dilutions from the stock solution were made in buffer.
An extensively washed buffy coat membrane fraction was prepared from frozen adult rat forebrains (Zivic-Miller Laboratories, Inc., Zelienople, Pa.) as described by Coughenour L. L., Cordon J. J., J. Phannacol. Exp. Ther., 1997;280:584-592, and stored at −80° C. On the day of the assay, pellets of the frozen membrane fractions were resuspended in 35 mL of assay buffer at pH 7.4 using a POLYTRON (Kinematica A.G. Company, Littau, Switzerland) mixer at setting 6. After incubation at 37° C. for 30 minutes in a shaking water bath, the homogenate was centrifuged 40,000×g for 10 minutes at 4° C. The pellets were resuspended in fresh buffer and centrifuged 3 more times before final suspension for use in the assay.
Triplicate incubations were carried out in a volume of 0.5 mL in 1.3 mL polypropylene tubes (Marsh Biomedical Products Inc., Rochester, N.Y.) for 2 hours at room temperature. Incubations contained invention compounds, membranes (100-200 μg protein) and 4 nM [^3H]-ifenprodil in 20 mM HEPES-KOH buffer, pH 7.4 (assay buffer). Assays were started by addition of the membranes. Bound radioligand was separated by filtration under reduced pressure using a TOMTEC Mach II, 96 well cell harvester (Tomtec Inc, Orange, Conn.). Filtration was through Whatman GF/B glass fiber filters (Whatman Ltd., Maidstone, England), which had been soaked for at least 15 minutes in 0.3% polyethylenimine and allowed to air dry. The filters were rinsed with 3 mL of ice cold assay buffer within 6 seconds. Air was allowed to pass through the filters for an additional 10 seconds to remove residual moisture. The filter mat was supported on a cold (−20° C.) TEFLON (E. I. Du Pont de Nemours and Company, Wilmington, Del.) coated support, and filters from individual wells were separated and placed in Mini Poly-Q vials (Beckman Instruments Inc., Fullerton, Calif.) and filled with 4 mL of scintillation cocktail (Beckman Ready Protein^+). Radioactivity retained on the filter was determined by liquid scintillation spectrophotometry. Nonspecific binding was defined as the binding in the presence of 1 mM ifenprodil. 90% of the total binding of ifenprodil was specific binding at the NR1A/NR2B NMDA receptor subtype active site (as opposed to binding at a remote site).
Binding curves were statistically analyzed for a best one- or two-site competition fit using GRAPHPAD PRISM software (GraphPad Software Inc., San Diego, Calif.), a computer program used to analyze and graph scientific data. The normalized data was fitted by nonweighted nonlinear regression to either [formula]
Control data was entered as 100%, and no parameters were constrained. […]

T1 sequence (Q00960 27-1482, other chains not shown): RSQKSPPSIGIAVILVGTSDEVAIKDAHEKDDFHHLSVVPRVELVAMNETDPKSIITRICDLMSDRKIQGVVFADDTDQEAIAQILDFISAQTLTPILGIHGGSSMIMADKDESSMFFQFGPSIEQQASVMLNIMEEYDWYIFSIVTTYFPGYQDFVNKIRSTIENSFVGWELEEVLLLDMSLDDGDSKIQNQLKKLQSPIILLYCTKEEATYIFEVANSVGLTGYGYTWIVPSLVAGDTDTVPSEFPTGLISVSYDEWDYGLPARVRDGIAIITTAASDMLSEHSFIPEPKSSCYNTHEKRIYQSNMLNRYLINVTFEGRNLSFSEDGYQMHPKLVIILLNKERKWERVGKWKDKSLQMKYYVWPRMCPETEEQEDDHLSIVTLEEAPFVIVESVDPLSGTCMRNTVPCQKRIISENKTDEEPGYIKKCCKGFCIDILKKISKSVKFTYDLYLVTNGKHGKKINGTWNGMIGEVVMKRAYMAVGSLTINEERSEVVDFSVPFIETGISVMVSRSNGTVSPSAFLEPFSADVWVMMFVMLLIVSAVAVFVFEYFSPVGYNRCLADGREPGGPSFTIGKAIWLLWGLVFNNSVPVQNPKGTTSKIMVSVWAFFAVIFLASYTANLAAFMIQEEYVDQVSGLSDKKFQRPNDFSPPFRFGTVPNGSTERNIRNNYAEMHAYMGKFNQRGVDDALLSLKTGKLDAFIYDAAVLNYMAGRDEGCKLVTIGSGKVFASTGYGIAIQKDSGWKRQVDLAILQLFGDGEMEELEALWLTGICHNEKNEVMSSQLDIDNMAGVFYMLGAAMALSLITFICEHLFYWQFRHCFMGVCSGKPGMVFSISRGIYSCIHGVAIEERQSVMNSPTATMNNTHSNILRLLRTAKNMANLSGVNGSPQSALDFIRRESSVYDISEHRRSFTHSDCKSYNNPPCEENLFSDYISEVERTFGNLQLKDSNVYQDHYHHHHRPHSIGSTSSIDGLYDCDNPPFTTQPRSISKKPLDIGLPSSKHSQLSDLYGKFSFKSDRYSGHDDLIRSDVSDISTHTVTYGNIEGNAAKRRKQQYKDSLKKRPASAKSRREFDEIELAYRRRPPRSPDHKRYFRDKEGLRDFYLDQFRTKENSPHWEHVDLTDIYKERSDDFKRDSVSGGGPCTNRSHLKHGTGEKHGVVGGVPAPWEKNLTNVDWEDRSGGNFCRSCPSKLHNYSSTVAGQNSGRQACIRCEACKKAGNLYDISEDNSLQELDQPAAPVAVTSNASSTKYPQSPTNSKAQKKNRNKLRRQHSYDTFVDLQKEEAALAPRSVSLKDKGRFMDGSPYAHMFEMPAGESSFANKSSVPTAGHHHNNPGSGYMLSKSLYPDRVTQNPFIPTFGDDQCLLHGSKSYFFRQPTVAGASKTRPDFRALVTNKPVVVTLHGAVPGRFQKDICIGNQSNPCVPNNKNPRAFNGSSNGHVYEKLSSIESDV

melting point [°C] | pIC50 [1] | SMILES
176 to 183 | – | Cc1oc(-c2ccccc2)cc1CN(C)[C@H]1CC[C@H](c2ccc3[nH]c(=O)oc3c2)CC1 (as salt: hydrochloride) [Example 2, trans-6-{4-[Methyl-(2-methyl-5-phenyl-furan-3-ylmethyl)-amino]-cyclohexyl}-3H-benzoxazol-2-one]
270 to 274 | – | CN(CC1CC(c2ccc3[nH]c(=O)oc3c2)=NO1)[C@H]1CC[C@H](c2ccccc2)CC1 (relative stereo) (as salt: hydrochloride) [Example 1, trans-6-(5-{[Methyl-(4-phenyl-cyclohexyl)-amino]-methyl}-4,5-dihydro-isoxazol-3-yl)-3H-benzoxazol-2-one]
– | < 6.00 | O=C1OC(CNC2CCC(c3ccc(F)cc3)CC2)CN1c1ccc2[nH]c(=O)oc2c1 (stereo not drawn) [Example 4a, trans-6-{5-[4-(4-Fluoro-phenyl)-cyclohexylamino]-methyl-2-oxo-oxazolindin-3-yl}-3H-benzoxazol-2-one]
246 to 248 | 6.07 | Cc1sc(-c2ccccc2)nc1CN(C)[C@H]1CC[C@H](c2ccc3[nH]c(=O)oc3c2)CC1 [Example 5b, trans-6-{4-[Methyl-(5-methyl-2-phenyl-thiazol-4-ylmethyl)-amino]-cyclohexyl}-3H-benzoxazol-2-one]
– | 5.18 | Cc1oc(-c2ccccc2)cc1CN(C)[C@H]1CC[C@H](c2ccc3[nH]c(=O)oc3c2)CC1 [Example 2, trans-6-{4-[Methyl-(2-methyl-5-phenyl-furan-3-ylmethyl)-amino]-cyclohexyl}-3H-benzoxazol-2-one]
– | 6.40 | CN(C[C@@H]1CN(c2ccccc2)C(=O)O1)[C@H]1CC[C@H](c2ccc3[nH]c(=O)oc3c2)CC1 [Example 3b, trans-(R)-6-{4-[Methyl-(2-oxo-3-phenyl-oxazolidin-5-ylmethyl)-amino]-cyclohexyl}-3H-benzoxazol-2-one]
109 to 114 | 6.41 | CN(CC1CC(c2ccc(F)cc2)=NO1)[C@H]1CC[C@H](c2ccc3[nH]c(=O)oc3c2)CC1 (relative stereo) [Example 6b, trans-6-(4-{[3-(4-Fluoro-phenyl)-4,5-dihydro-isoxazol-5-ylmethyl]-methyl-amino}-cyclohexyl)-3H-benzoxazol-2-one]
– | < 6.00 | CN(CC1CN(c2ccc3[nH]c(=O)oc3c2)C(=O)O1)C1CCC(c2ccc(F)cc2)CC1 (stereo not drawn) [Example 4b, trans-6-(5-{[4-(4-Fluoro-phenyl)-cyclohexyl]-methyl-amino}-methyl-2-oxo-oxazolindin-3-yl)-3H-benzoxazol-2-one]
– | 5.23 | CN(CC1CC(c2ccc3[nH]c(=O)oc3c2)=NO1)[C@H]1CC[C@H](c2ccccc2)CC1 (relative stereo) [Example 1, trans-6-(5-{[Methyl-(4-phenyl-cyclohexyl)-amino]-methyl}-4,5-dihydro-isoxazol-3-yl)-3H-benzoxazol-2-one]
